ChEMBL document CHEMBL5550197, “New melphalan derivatives for the treatment of retinoblastoma in combination with thermotherapy” (RSC Med Chem, 2024)

How the values were obtained:
[1] = tested on: dsDNA; assay: Binding affinity to dsDNA (unknown origin) assessed as adduct formation by measuring bound dsDNA incubated for 48 hrs by ESI-MS analysis; format: nucleic-acid assay
[2] = tested on: dsDNA; assay: Binding affinity to dsDNA (unknown origin) assessed as adduct formation by measuring free dsDNA incubated for 48 hrs by ESI-MS analysis; format: nucleic-acid assay; design: concentration or dose not given beside the values
[3] = tested on: Y79; assay: Potency index, ratio of melphalan IC50 to test compound IC50 for cytotoxicity against human Y79 cells assessed as cell viability incubated for 24 hrs under 37 degreeC by PrestoBlue reagent based assay; format: functional
[4] = tested on: Y79; assay: Potency index, ratio of melphalan IC50 to test compound IC50 for cytotoxicity against human Y79 cells assessed as cell viability preincubated for 1 hr under 42 degreeC and further incubated under 37 degreeC for 23 hrs by PrestoBlue reagent based assay; format: functional; settings: time 24 hrs
[5] = tested on: Y79; assay: Cytotoxicity against human Y79 cells assessed as cell viability incubated for 24 hrs under 37 degreeC by PrestoBlue reagent based assay; format: functional; settings: Y79, 24 h
[6] = tested on: RPMI-8226; assay: Cytotoxicity against human RPMI-8226 cells incubated for 48 hrs by resazurin dye based assay; format: functional, cell-based; settings: RPMI-8226, 48 h

SMILES | Activity [1] [%] | Activity [2] [%] | other results
N[C@@H](Cc1ccc(N(CCCl)CCCl)cc1)C(=O)OCCC(F)(F)C(F)(F)F | 63 | 37 | –
N[C@@H](Cc1ccc(N(CCCl)CCCl)cc1)C(=O)OCCC(F)(F)C(F)(F)C(F)(F)C(F)(F)C(F)(F)C(F)(F)C(F)(F)C(F)(F)F | – | 98 | –
Cl.N[C@@H](Cc1ccc(N(CCCl)CCCl)cc1)C(=O)OCCC(F)(F)F | 74 | 26 | Ratio IC50 [3]: 8; Ratio IC50 [4]: 8
N[C@@H](Cc1ccc(N(CCCl)CCCl)cc1)C(=O)OCCC(F)(F)C(F)(F)C(F)(F)C(F)(F)C(F)(F)C(F)(F)C(F)(F)C(F)(F)C(F)(F)C(F)(F)F | – | – | IC50 [5]: > 200 µM
N[C@@H](Cc1ccc(N(CCCl)CCCl)cc1)C(=O)OCCC(F)(F)C(F)(F)C(F)(F)C(F)(F)F | 49 | 51 | –
N[C@@H](Cc1ccc(N(CCCl)CCCl)cc1)C(=O)OCCC(F)(F)C(F)(F)C(F)(F)C(F)(F)C(F)(F)C(F)(F)F | – | 92 | –
N[C@@H](Cc1ccc(N(CCCl)CCCl)cc1)C(=O)O | – | 99 | IC50 [6]: 8.9 µM
